According to paper PMC8012336, “An automated and high-throughput-screening compatible pluripotent stem cell-based test platform for developmental and reproductive toxicity assessment of small molecule compounds” (Cell Biology and Toxicology, 2020):
≈ marks a conversion by molar mass, not a printed value.

Experiments:
[1] = Automated CellTiter-Glo luminescent cell viability (cytotoxicity) assay, 5 d; details: mouse
Protocol: The CellTiter-Glo® luminescent cell viability assay (Promega, Cat. No. G7573) was automated in 96-well format on the lab automation platform Fluent® (Tecan, Männedorf, Switzerland). The procedure allowed the testing of six compounds in mESC-D3 and NIH/3T3 cells in parallel. On the first day, PBS was dispensed into the peripheral wells of the assay plates (200 μl/well) using the Multiple Channel Arm (MCA). Mouse ES-D3 and NIH/3T3 cells were plated (50 μl/well, 1 × 10^4 cells/ml)) using the Flexible Channel Arm (FCA) and transported into the Cytomat™ 10 (Thermo Fisher Scientific) for incubation using the Robotic Gripper Arm (RGA). A 7-point dilution series of the test compounds and control solutions were prepared in PBS or DMSO (Carl Roth, Cat. No. HN47.1) under the laminar flow, transferred to a 96-well 0.5-ml Masterblock plate (Greiner bio-one, Cat. No. 786261) and placed on the worktable. On the Fluent the compounds were transferred to a 96-well 2-ml Masterblock plate (Greiner bio-one, Cat. No. 780271) and further diluted in growth media using the FCA. Two hours after cell plating compounds and controls were transferred to the assay plate with the FCA (150 μl/well) and transported back in the Cytomat 10. On day three of the assay, the media was exchanged using the MCA: old media was aspirated and dispensed into a 96-deep-well plate (“waste”), freshly prepared compound, and control solution was dispensed into the assay plate. After two more days of incubation, the cell viability was determined using the CellTiter-Glo assay. The assay plates were transported from the Cytomat 10 to the Carousel (Tecan) to adapt to room temperature. After 25 min the cell supernatant was removed partially (80 μl/well) and CellTiter-Glo reagent was dispensed (50 μl/well). The assay plate was placed on a shaker for 1 min and afterward incubated 25 min in the Carousel before the Luminescence signal was detected on the Infinite M1000 Pro plate reader (Tecan).
(§1) Toxicity data from the MTT and CellTiter-Glo Assay was normalized against the vehicle control (100% viability) and plotted against the logarithmic compound concentration.

[2] = Manual MTT cell viability assay, 7 d; type: cell-based, mouse; details: mouse, manual, in brackets the two individual experiments
Protocol: (§2) The MTT cell viability assay was performed as described (Seiler and Spielmann [2011]) with modifications. In brief, 96-well cell culture plates were coated with gelatin (0.1%) before plating mESC-D3. All peripheral wells of the assay plate were filled with 200 μl growth media (“blank”). Afterward, NIH/3T3 and mESC-D3 were plated in growth media (1 × 10^4 cells/ml, 50 μl/well). […] Vehicle (PBS) and positive control (5-fluorouracil) wells were also included on all assay plates. Three and 5 days after seeding the cell supernatant was replaced by freshly prepared compound solution (200 μl/well). Seven days after seeding the cell viability was detected. Therefore, the cell supernatant was aspirated from all wells, MTT solution (5 mg/ml) was added (20 μl/well) and the assay plate was incubated for 2 h at 37 °C and 5% CO2 in a humidified atmosphere. Afterward, all liquid was removed from the wells and MTT desorb solution (0.7% SDS in 2-propanol (Carl Roth, Cat. No. 9866.5), pre-warmed to 37 °C) was dispensed (130 μl/well). The assay plate was placed on a shaker for 15 min. Remaining precipitates were suspended by pipetting up and down with a multichannel pipette before measuring the absorption at 570 nm on a microtiter plate reader using 630 nm as a reference wavelength.
as §1

[3] = Manual CellTiter-Glo luminescent cell viability assay (7 d or 5 d); type: cell-based, mouse; details: mouse, in brackets the two individual experiments
Protocol: 96-well cell culture plates were coated with gelatin (0.1%) before plating mESC-D3. All peripheral wells of the assay plate were filled with 200 μl growth media. In order to assess compound toxicity on mESC-D3 and NIH/3T3 cells, cell suspensions of NIH/3T3, and mESC-D3 were prepared in growth media (1 × 10^4 cells/ml) and were transferred to all remaining wells (50 μl/well). A 7-point dilution series in growth media was prepared for each test compound and was transferred to the assay plate 2 h after cell seeding (150 μl/well). Afterward, the cells were incubated in a humidified atmosphere at 37 °C and 5% CO2. Three and 5 days after seeding the cell supernatant was replaced by freshly prepared compound solution (200 μl/well). […] The assay plate was placed on a shaker for 1 min and after another 10 min incubation at room temperature in the dark the luminescence signal was detected on a plate reader.
as §1

[4] = Manual human EST cytotoxicity assay, MTT, 5 d; details: human
Protocol: (§3) The cytotoxicity assessment with a reduced assay time of 5 days combined with either NADH- or ATP-based detection was also carried out with human induced pluripotent stem cells (hiPSCs). […] Furthermore, differences in the cytotoxicity effects between the hiPSCs and HDFfs were more pronounced than in the mouse cells. Similar to the cytotoxicity-based assay the overall variance in the data is reduced when viability data was obtained by an ATP-based read-out.
as §2
(§4) Figure S1: Step-wise evolution of the cytotoxicity assay towards the use of human cell lines. Related to Figure 2. Cytotoxicity assays were carried out with two compound sets on hiPSC line ZIPi013-E and HDFf, from which they were derived. […] A) 5 day MTT assay and manual handling. B) As in A), but using CellTiter-Glo® viability assay. All points in the graph represent the mean of 6 individual data points, including the standard error.

[5] = Manual human EST cytotoxicity assay, CellTiter-Glo, 5 d; details: human
Protocol: as §3
96-well cell culture plates were coated with gelatin (0.1%) before plating mESC-D3. All peripheral wells of the assay plate were filled with 200 μl growth media. In order to assess compound toxicity on mESC-D3 and NIH/3T3 cells, cell suspensions of NIH/3T3, and mESC-D3 were prepared in growth media (1 × 10^4 cells/ml) and were transferred to all remaining wells (50 μl/well). A 7-point dilution series in growth media was prepared for each test compound and was transferred to the assay plate 2 h after cell seeding (150 μl/well). Afterward, the cells were incubated in a humidified atmosphere at 37 °C and 5% CO2. Three and 5 days after seeding the cell supernatant was replaced by freshly prepared compound solution (200 μl/well). Seven days after seeding the assay plate was taken out of the incubator and located at room temperature for 10 min, before cell supernatant was aspirated (80 μl/well) and CellTiter-Glo® reagent was dispensed (50 μl/well). The assay plate was placed on a shaker for 1 min and after another 10 min incubation at room temperature in the dark the luminescence signal was detected on a plate reader.
as §4

[6] = test system: mESC-D3 and NIH/3T3 cells; details: manual murine EST assay; prediction model of Seiler and Spielmann 2011
mESC-D3 [7] = test system: mESC-D3; parameters: method as in Scholz et al. [1999]; details: ZEBET value, 7 d result; ref Scholz et al. [1999]; cited from earlier work
NIH/3T3 = test system: NIH/3T3; parameters: method as in Scholz et al. [1999]; details: ZEBET value, 7 d result; ref Scholz et al. [1999]; cited from earlier work
mESC-D3 [8] = test system: mESC-D3; parameters: method as in Scholz et al. [1999]; details: ZEBET value printed beside hanging drop differentiation result; ref Scholz et al. [1999]; cited from earlier work
mESC-D3 [9] = assay: Conventional mouse ES-D3 differentiation assay in hanging drop format (petri dish; cardiomyocyte contraction, day 10); type: cell-based; details: manual; beating cardiomyocytes at day 10; in brackets the two individual experiments
Protocol: Separate Petri dishes were used for each concentration of test compound, untreated control, and solvent control. […] The EB suspension was incubated for 2 days. On day five of the assay, a fresh compound dilution series was prepared in media and transferred into 24-well cell culture plates (1 ml/well, Greiner bio-one, Cat. No. 662641). A separate 24-well plate was used for each compound concentration, untreated control, and solvent control (24 wells per condition). One EB was transferred from the Petri dish into each well of the 24-well plate. After further 5 days of incubation (= day 10 of the assay), cardiomyocyte contraction was determined in each well under the light microscope.

[10] = mESC-D3 cells (mouse embryonic stem cells)
[11] = mESC-D3 cells, read-out: Cytotoxicity assay MTT, 7 d IC50 mESC-D3
[12] = mESC-D3 cells, read-out: Cytotoxicity assay CTG, 5 d IC50 mESC-D3
[13] = mESC-D3 cells, read-out: Cytotoxicity assay CTG, 7 d IC50 mESC-D3
[14] = HDFf (human dermal fibroblasts of fetal origin)

| Structure (SMILES) | IC50 at 5 d ([1]; NIH/3T3 cells) [µg/mL] | IC50 at 5 d [1, 10] [µg/mL] | IC50 at 7 d ([2]; NIH/3T3 cells, read-out: Cytotoxicity assay MTT, 7 d IC50 NIH/3T3) [µg/mL] | IC50 at 7 d [2, 11] [µg/mL] | IC50 at 5 d ([3]; NIH/3T3 cells, read-out: Cytotoxicity assay CTG, 5 d IC50 NIH/3T3) [µg/mL] | IC50 at 7 d ([3]; NIH/3T3 cells, read-out: Cytotoxicity assay CTG, 7 d IC50 NIH/ 3T3) [µg/mL] | IC50 at 5 d [3, 12] [µg/mL] | IC50 at 7 d [3, 13] [µg/mL] | IC50 at 5 d [4, 14] [µg/mL] | IC50 at 5 d ([4]; hiPSC line ZIPi013-E) [µg/mL] | IC50 at 5 d [5, 14] [µg/mL] | IC50 at 5 d ([5]; hiPSC line ZIPi013-E) [µg/mL] | Compound classification [6] | IC50 mESC-D3 (ZEBET) (mESC-D3 [7]) [µg/mL] | IC50 NIH/3T3 (ZEBET) (NIH/3T3) [µg/mL] | ID50 mESC-D3 (ZEBET) (mESC-D3 [8]) [µg/mL] | Differentiation assay in hanging drop (petri dish) ID50 mESC-D3 (mESC-D3 [9]) |
| --- | --- | --- | --- | --- | --- | --- | --- | --- | --- | --- | --- | --- | --- | --- | --- | --- | --- |
| O=c1[nH]cc(F)c(=O)[nH]1 [5-Fluorouracil, 5-fluorouracil] | 0.11 (≈ 0.846 µM) | 0.0627 (≈ 0.482 µM) | 0.116 (≈ 0.892 µM) | 0.0395 (≈ 0.304 µM) | 0.0958 (≈ 0.736 µM) | 0.128 (≈ 0.984 µM) | 0.0493 (≈ 0.379 µM) | 0.0681 (≈ 0.524 µM) | 0.195 (≈ 1.5 µM) | 0.223 (≈ 1.72 µM) | 0.186 (≈ 1.43 µM) | 0.0166 (≈ 0.128 µM) | strong embryotoxicity | 0.103 (≈ 0.792 µM) | 0.17 (≈ 1.31 µM) | 0.0289 (≈ 0.222 µM) | – |
| Cn1c(=O)c2c(ncn2C)n(C)c1=O [Caffeine, caffeine] | – | 138 (≈ 711 µM) | – | 152 (≈ 783 µM) | – | – | 172 (≈ 886 µM) | 119 (≈ 613 µM) | 358 (≈ 1850 µM) | 13.3 (≈ 68.3 µM) | 412 (≈ 2120 µM) | 43.6 (≈ 225 µM) | – | – | – | 185 (≈ 953 µM) | 130 (130; > 200) µg/ml |
